Source: patent publication US6358885B1, “Substituted phenylheterocyclic herbicides” (Mississippi State University, priority 1992, dated 2002)

Key:
duck salad = assay: Test C flood test plant response rating 0 to 100; format: in vivo, Heteranthera limosa
Summary of the method: (§1)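 Compounds in non-phytotoxic solvent applied preemergence to sandy loam one day after planting, postemergence at the 1–4 leaf stage, or to ~2.5 cm floodwater over silt loam.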

crabgrass [1] = assay: Test B preemergence/postemergence greenhouse plant response rating 0 to 10; format: in vivo, Digitaria spp.; conditions: for Plant response rating, Crabgrass: 0 to 10 scale
Summary of the method: (§2)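 Planted seeds are treated preemergence with compound dissolved in a non-phytotoxic solvent, while postemergence applications go onto plants of two to eighteen cm. Plants stay in the greenhouse twelve to sixteen days and are then rated visually relative to controls.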

wheat = assay: as above; format: in vivo, Triticum aestivum; conditions: 0 to 10 scale
Summary of the method: as §2

chickweed [2] = assay: as above; format: in vivo, Stellaria media; conditions: Rate 10 g/ha, 0 to 10 scale
Summary of the method: as §2

rice = assay: Test C flood test plant response rating 0 to 100; format: in vivo, Oryza sativa
Summary of the method: as §1

crabgrass [3] = assay: Test C preemergence/postemergence greenhouse plant response rating 0 to 100; format: in vivo, Digitaria sanguinalis; conditions: POSTEMERGENCE
Summary of the method: as §1

giant foxtail [4] = assay: as above; format: in vivo, Setaria faberii; conditions: POSTEMERGENCE
Summary of the method: as §1

sorghum = assay: Test B preemergence/postemergence greenhouse plant response rating 0 to 10; format: in vivo, Sorghum bicolor; conditions: 0 to 10 scale
Summary of the method: as §2

barley = assay: as above; format: in vivo, Hordeum vulgare; conditions: for Plant response rating, Barley: 0 to 10 scale
Summary of the method: as §2

rape = assay: as above; format: in vivo, Brassica napus; conditions: 0 to 10 scale
Summary of the method: as §2

bedstraw = assay: Test C preemergence/postemergence greenhouse plant response rating 0 to 100; format: in vivo, Galium aparine; conditions: POSTEMERGENCE
Summary of the method: as §1

wild buckwheat = assay: as above; format: in vivo, Polygonum convolvulus; conditions: POSTEMERGENCE
Summary of the method: as §1

downy brome = assay: as above; format: in vivo, Bromus tectorum; conditions: POSTEMERGENCE
Summary of the method: as §1

wild oat = assay: as above; format: in vivo, Avena fatua; conditions: POSTEMERGENCE
Summary of the method: as §1

barnyardgrass = assay: Test B preemergence/postemergence greenhouse plant response rating 0 to 10; format: in vivo, Echinochloa crus-galli; conditions: for Plant response rating, Barnyardgrass: 0 to 10 scale
Summary of the method: as §2

corn = assay: as above; format: in vivo, Zea mays; conditions: for Plant response rating, Corn: 0 to 10 scale
Summary of the method: as §2

giant foxtail [5] = assay: as above; format: in vivo, Setaria faberii; conditions: 0 to 10 scale
Summary of the method: as §2

chickweed [6] = assay: Test C preemergence/postemergence greenhouse plant response rating 0 to 100; format: in vivo, Stellaria media; conditions: POSTEMERGENCE
Summary of the method: as §1

[7] = POSTEMERGENCE section, flood test, Rate 1 g/ha
[8] = POSTEMERGENCE section, flood test, Rate 4 g/ha
[9] = Rate 16 g/ha, under POSTEMERGENCE head (flood test species)
[10] = flood test species listed under POSTEMERGENCE, 62 g/ha, 0 to 100 scale

CCCN1C(=O)COc2cc(F)c(-c3nn4c(c3Cl)CCCC4)cc21 [Compound 32]
Plant response rating (0 to 100), Duck salad (duck salad; [7]): 0
Plant response rating (0 to 100), Duck salad (duck salad; [8]): 0
Plant response rating (0 to 100), Duck salad (duck salad; [9]): 30
Plant response rating Duck salad (duck salad; [10]): 60
Plant response rating, Crabgrass (crabgrass [1]; POSTEMERGENCE, Rate 10 g/ha): 3
Plant response rating (0 to 10 scale), Crabgrass (crabgrass [1]; POSTEMERGENCE, Rate 50 g/ha): 5
Plant response rating, Crabgrass (crabgrass [1]; PREEMERGENCE, Rate 10 g/ha): 2
Plant response rating, Crabgrass (crabgrass [1]; PREEMERGENCE, Rate 50 g/ha): 3
Plant response rating, Wheat (wheat; POSTEMERGENCE, Rate 10 g/ha): 5
Plant response rating, Wheat (wheat; POSTEMERGENCE, Rate 50 g/ha): 5
Plant response rating, Wheat (wheat; PREEMERGENCE, Rate 50 g/ha): 0
Plant response rating, Chickweed (chickweed [2]; POSTEMERGENCE): 10
Plant response rating, Chickweed (chickweed [2]; PREEMERGENCE): 0
Plant response rating (0 to 100), Rice Japonica (rice; [7]): 0
Plant response rating (0 to 100), Rice Japonica (rice; [8]): 20
Plant response rating (0 to 100), Rice Japonica (rice; [9]): 30
Plant response rating Rice Japonica (rice; [10]): 75
Plant response rating, Crabgrass (crabgrass [3]; 62 g/ha, 0 to 100 scale): 40
Plant response rating (0 to 100), Crabgrass (crabgrass [3]; Rate 1 g/ha): 10
Plant response rating (0 to 100), Crabgrass (crabgrass [3]; Rate 4 g/ha): 20
Plant response rating (0 to 100), Crabgrass (crabgrass [3]; Rate 16 g/ha): 30
Plant response rating, Giant foxtail (giant foxtail [4]; 62 g/ha, 0 to 100 scale): 70
Plant response rating (0 to 100), Giant foxtail (giant foxtail [4]; Rate 1 g/ha): 20
Plant response rating (0 to 100), Giant foxtail (giant foxtail [4]; Rate 4 g/ha): 30
Plant response rating (0 to 100), Giant foxtail (giant foxtail [4]; Rate 16 g/ha): 50
Plant response rating, Sorghum (sorghum; POSTEMERGENCE, Rate 10 g/ha): 6
Plant response rating, Sorghum (sorghum; POSTEMERGENCE, Rate 50 g/ha): 6
Plant response rating, Sorghum (sorghum; PREEMERGENCE, Rate 50 g/ha): 2
Plant response rating, Barley (barley; POSTEMERGENCE, Rate 10 g/ha): 5
Plant response rating (0 to 10 scale), Barley (barley; POSTEMERGENCE, Rate 50 g/ha): 5
Plant response rating, Barley (barley; PREEMERGENCE, Rate 10 g/ha): 0
Plant response rating, Barley (barley; PREEMERGENCE, Rate 50 g/ha): 0
Plant response rating, Rape (rape; POSTEMERGENCE, Rate 10 g/ha): 6
Plant response rating, Rape (rape; POSTEMERGENCE, Rate 50 g/ha): 10
Plant response rating, Rape (rape; PREEMERGENCE, Rate 50 g/ha): 2
Plant response rating, Bedstraw (bedstraw; 62 g/ha, 0 to 100 scale): 100
Plant response rating (0 to 100), Bedstraw (bedstraw; Rate 1 g/ha): 85
Plant response rating (0 to 100), Bedstraw (bedstraw; Rate 4 g/ha): 90
Plant response rating (0 to 100), Bedstraw (bedstraw; Rate 16 g/ha): 100
Plant response rating, Wild buckwheat (wild buckwheat; 62 g/ha, 0 to 100 scale): 95
Plant response rating (0 to 100), Wild buckwheat (wild buckwheat; Rate 1 g/ha): 30
Plant response rating (0 to 100), Wild buckwheat (wild buckwheat; Rate 4 g/ha): 60
Plant response rating (0 to 100), Wild buckwheat (wild buckwheat; Rate 16 g/ha): 90
Plant response rating Downy Brome (downy brome; 62 g/ha, 0 to 100 scale): 50
Plant response rating (0 to 100), Downy Brome (downy brome; Rate 1 g/ha): 20
Plant response rating (0 to 100), Downy Brome (downy brome; Rate 4 g/ha): 30
Plant response rating (0 to 100), Downy Brome (downy brome; Rate 16 g/ha): 40
Plant response rating, Wild oat (wild oat; 62 g/ha, 0 to 100 scale): 50
Plant response rating (0 to 100), Wild oat (wild oat; Rate 1 g/ha): 20
Plant response rating (0 to 100), Wild oat (wild oat; Rate 4 g/ha): 30
Plant response rating (0 to 100), Wild oat (wild oat; Rate 16 g/ha): 30
Plant response rating, Barnyardgrass (barnyardgrass; POSTEMERGENCE, Rate 10 g/ha): 3
Plant response rating (0 to 10 scale), Barnyardgrass (barnyardgrass; POSTEMERGENCE, Rate 50 g/ha): 5
Plant response rating, Barnyardgrass (barnyardgrass; PREEMERGENCE, Rate 10 g/ha): 0
Plant response rating, Barnyardgrass (barnyardgrass; PREEMERGENCE, Rate 50 g/ha): 1
Plant response rating, Corn (corn; POSTEMERGENCE, Rate 10 g/ha): 3
Plant response rating (0 to 10 scale), Corn (corn; POSTEMERGENCE, Rate 50 g/ha): 4
Plant response rating, Corn (corn; PREEMERGENCE, Rate 50 g/ha): 0
Plant response rating, Giant foxtail (giant foxtail [5]; POSTEMERGENCE, Rate 10 g/ha): 4
Plant response rating, Giant foxtail (giant foxtail [5]; POSTEMERGENCE, Rate 50 g/ha): 5
Plant response rating, Giant foxtail (giant foxtail [5]; PREEMERGENCE, Rate 10 g/ha): 2
Plant response rating, Giant foxtail (giant foxtail [5]; PREEMERGENCE, Rate 50 g/ha): 4
Plant response rating, Chickweed (chickweed [6]; 62 g/ha, 0 to 100 scale): 100
Plant response rating (0 to 100), Chickweed (chickweed [6]; Rate 1 g/ha): 30
Plant response rating (0 to 100), Chickweed (chickweed [6]; Rate 4 g/ha): 60
Plant response rating (0 to 100), Chickweed (chickweed [6]; Rate 16 g/ha): 90
